Experimental data from PubChem BioAssay (NCI).
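Cultured in 96-well plates, cells were exposed to test compound for 48 hours across five concentrations. At the GI50, growth is halved. TGI: concentration producing complete growth inhibition.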

Experiments:
Assay in all cases: NCI tumour cell line growth inhibition, 48 h
786-0 renal = system: 786-0 renal
A498 renal = system: A498 renal
A549 NSCLC = system: A549 NSCLC
ACHN renal = system: ACHN renal
BT-549 breast = system: BT-549 breast
CAKI-1 renal = system: CAKI-1 renal
CCRF-CEM leukemia = system: CCRF-CEM leukemia
COLO 205 colon = system: COLO 205 colon
DU-145 prostate = system: DU-145 prostate
EKVX NSCLC = system: EKVX NSCLC
HCC-2998 colon = system: HCC-2998 colon
HCT-15 colon = system: HCT-15 colon
HL-60(TB) leukemia = system: HL-60(TB) leukemia
HOP-62 NSCLC = system: HOP-62 NSCLC
HOP-92 NSCLC = system: HOP-92 NSCLC
HS 578T breast = system: HS 578T breast
HT29 colon = system: HT29 colon
IGROV1 ovarian = system: IGROV1 ovarian
K-562 leukemia = system: K-562 leukemia
KM12 colon = system: KM12 colon
LOX IMVI melanoma = system: LOX IMVI melanoma
MALME-3M melanoma = system: MALME-3M melanoma
MCF7 breast = system: MCF7 breast
MDA-MB-231 breast = system: MDA-MB-231 breast
MOLT-4 leukemia = system: MOLT-4 leukemia
NCI-H226 lung = system: NCI-H226 lung
NCI-H23 lung = system: NCI-H23 lung
NCI-H460 lung = system: NCI-H460 lung
NCI-H522 lung = system: NCI-H522 lung
NCI/ADR-RES ovarian = system: NCI/ADR-RES ovarian
OVCAR-3 ovarian = system: OVCAR-3 ovarian
OVCAR-4 ovarian = system: OVCAR-4 ovarian
OVCAR-5 ovarian = system: OVCAR-5 ovarian
OVCAR-8 ovarian = system: OVCAR-8 ovarian
PC-3 prostate = system: PC-3 prostate
RPMI-8226 leukemia = system: RPMI-8226 leukemia
RXF 393 renal = system: RXF 393 renal
SF-268 CNS = system: SF-268 CNS
SF-295 CNS = system: SF-295 CNS
SF-539 CNS = system: SF-539 CNS
SK-MEL-2 melanoma = system: SK-MEL-2 melanoma
SK-MEL-5 melanoma = system: SK-MEL-5 melanoma
SK-OV-3 ovarian = system: SK-OV-3 ovarian
SN12C renal = system: SN12C renal
SNB-19 CNS = system: SNB-19 CNS
SNB-75 CNS = system: SNB-75 CNS
SR leukemia = system: SR leukemia
SW-620 colon = system: SW-620 colon
TK-10 renal = system: TK-10 renal
U251 CNS = system: U251 CNS
UACC-257 melanoma = system: UACC-257 melanoma
UACC-62 melanoma = system: UACC-62 melanoma
UO-31 renal = system: UO-31 renal
M14 melanoma = system: M14 melanoma
MDA-MB-435 = system: MDA-MB-435
SK-MEL-28 melanoma = system: SK-MEL-28 melanoma
T-47D breast = system: T-47D breast

## CCOC(=O)[C@@H](C)C[C@H](Cc1ccccc1)NC(=O)c1csc([C@@H](C[C@H](C(C)C)N(C)C(=O)[C@@H](NC(=O)[C@H]2C[C@H](O)CCN2C)C(C)C)OC(C)=O)n1
786-0 renal
  GI50: 27.3 nM
  TGI: > 16.7 µM
A498 renal
  GI50: 7.21 nM
  TGI: 87.9 nM
A549 NSCLC
  GI50: 35.6 nM
  TGI: > 16.7 µM
ACHN renal
  GI50: 106 nM
  TGI: > 16.7 µM
BT-549 breast
  GI50: 2.83 nM
  TGI: 91.5 nM
CAKI-1 renal
  GI50: 68.2 nM
  TGI: > 16.7 µM
CCRF-CEM leukemia
  GI50: 5.34 nM
  TGI: > 16.7 µM
COLO 205 colon
  GI50: < 1.67 nM
  TGI: 14.3 nM
DU-145 prostate
  GI50: 4.21 nM
EKVX NSCLC
  GI50: 50 nM
  TGI: > 16.7 µM
HCC-2998 colon
  GI50: 2.95 nM
  TGI: > 16.7 µM
HCT-15 colon
  GI50: 149 nM
  TGI: > 16.7 µM
HL-60(TB) leukemia
  GI50: 2.78 nM
  TGI: 12 nM
HOP-62 NSCLC
  GI50: 14.6 nM
  TGI: > 16.7 µM
HOP-92 NSCLC
  GI50: 6.63 nM
  TGI: > 4.46 µM
HS 578T breast
  GI50: 9.06 nM
  TGI: > 16.7 µM
HT29 colon
  GI50: 2.3 nM
  TGI: > 16.7 µM
IGROV1 ovarian
  GI50: 2.09 nM
  TGI: > 16.7 µM
K-562 leukemia
  GI50: 2.52 nM
  TGI: > 16.7 µM
KM12 colon
  GI50: 2.3 nM
LOX IMVI melanoma
  GI50: 4.22 nM
  TGI: > 16.7 µM
MALME-3M melanoma
  GI50: 2.08 nM
  TGI: > 16.7 µM
MCF7 breast
  GI50: < 1.67 nM
  TGI: > 16.7 µM
MDA-MB-231 breast
  GI50: 5.65 nM
  TGI: 3.24 µM
MOLT-4 leukemia
  GI50: 7.14 nM
  TGI: > 16.7 µM
NCI-H226 lung
  GI50: 10.5 nM
  TGI: 340 nM
NCI-H23 lung
  GI50: 7.63 nM
  TGI: > 16.7 µM
NCI-H460 lung
  GI50: 6.3 nM
  TGI: > 16.7 µM
NCI-H522 lung
  GI50: < 1.67 nM
  TGI: 36.7 nM
NCI/ADR-RES ovarian
  GI50: 2670 nM
  TGI: > 16.7 µM
OVCAR-3 ovarian
  GI50: < 1.67 nM
OVCAR-4 ovarian
  GI50: 25.9 nM
  TGI: > 16.7 µM
OVCAR-5 ovarian
  GI50: 15 nM
  TGI: > 16.7 µM
OVCAR-8 ovarian
  GI50: 16.6 nM
  TGI: > 16.7 µM
PC-3 prostate
  GI50: 1.87 nM
  TGI: > 16.7 µM
RPMI-8226 leukemia
  GI50: < 1.67 nM
  TGI: > 16.7 µM
RXF 393 renal
  GI50: 9.55 nM
SF-268 CNS
  GI50: 8.81 nM
  TGI: > 16.7 µM
SF-295 CNS
  GI50: 7.81 nM
  TGI: > 16.7 µM
SF-539 CNS
  GI50: 4.52 nM
  TGI: 15.7 nM
SK-MEL-2 melanoma
  GI50: 2.43 nM
  TGI: > 16.7 µM
SK-MEL-5 melanoma
  GI50: 1.75 nM
  TGI: 130 nM
SK-OV-3 ovarian
  GI50: 4.74 nM
  TGI: > 16.7 µM
SN12C renal
  GI50: 9.36 nM
  TGI: > 16.7 µM
SNB-19 CNS
  GI50: 3.12 nM
  TGI: > 16.7 µM
SNB-75 CNS
  GI50: 3.84 nM
  TGI: > 16.7 µM
SR leukemia
  GI50: < 1.67 nM
  TGI: > 16.7 µM
SW-620 colon
  GI50: 4.17 nM
  TGI: > 16.7 µM
TK-10 renal
  GI50: 426 nM
  TGI: > 16.7 µM
U251 CNS
  GI50: 6.14 nM
  TGI: > 16.7 µM
UACC-257 melanoma
  GI50: > 16.7 µM
  TGI: > 16.7 µM
UACC-62 melanoma
  GI50: < 1.67 nM
  TGI: > 16.7 µM
UO-31 renal
  GI50: 647 nM
  TGI: > 16.7 µM

## COc1ccc(-c2coc3cc(O)cc(O)c3c2=O)cc1
786-0 renal
  TGI: > 10 µM
A549 NSCLC
  TGI: > 10 µM
ACHN renal
  TGI: > 10 µM
CAKI-1 renal
  TGI: > 10 µM
CCRF-CEM leukemia
  TGI: > 10 µM
COLO 205 colon
  TGI: > 10000 nM
HL-60(TB) leukemia
  TGI: > 10000 nM
HOP-62 NSCLC
  TGI: > 10 µM
IGROV1 ovarian
  TGI: > 10 µM
K-562 leukemia
  TGI: > 10 µM
M14 melanoma
  TGI: > 10 µM
MALME-3M melanoma
  TGI: > 10 µM
MCF7 breast
  TGI: > 10 µM
MDA-MB-435
  TGI: > 10 µM
MOLT-4 leukemia
  TGI: > 10 µM
NCI-H23 lung
  TGI: > 10 µM
NCI-H460 lung
  TGI: > 10 µM
NCI/ADR-RES ovarian
  TGI: > 10 µM
OVCAR-4 ovarian
  TGI: > 10 µM
OVCAR-5 ovarian
  TGI: > 10 µM
RPMI-8226 leukemia
  TGI: > 10 µM
RXF 393 renal
  TGI: > 10 µM
SF-268 CNS
  TGI: > 10 µM
SK-MEL-2 melanoma
  TGI: > 10 µM
SK-MEL-28 melanoma
  TGI: > 10 µM
SK-MEL-5 melanoma
  TGI: > 10000 nM
SK-OV-3 ovarian
  TGI: > 10 µM
SNB-75 CNS
  TGI: > 10 µM
SR leukemia
  TGI: > 10 µM
SW-620 colon
  TGI: > 10 µM
T-47D breast
  TGI: > 10 µM
U251 CNS
  TGI: > 10 µM
UACC-62 melanoma
  TGI: > 10 µM
